Assay results: patent US20260207578A1, “COMPOUND BASED ON SULFUR/OXYGEN SUBSTITUTED GLUTARIMIDE-BASED ISOINDOLINONE SKELETON AND USE THEREOF” (Gluetacs Therapeutics (Shanghai) Co., LTD., priority 2022, published 2026)

How the values were obtained:
IKZF3 = target: T1, IKZF3 (Homo sapiens, UniProt Q96SW2+Q9UKT9); test: Western-blot assay, substrate protein in hPBMCs; assay type: cell-based; conditions: hPBMC cells, 24 hours, tested at 50 nM and 500 nM, table does not say which
T1 construct: endogenous in cells; host or cells: human PBMCs (Milecell Biotechnologies)
T1 sequence (Q9UKT9 whole entry): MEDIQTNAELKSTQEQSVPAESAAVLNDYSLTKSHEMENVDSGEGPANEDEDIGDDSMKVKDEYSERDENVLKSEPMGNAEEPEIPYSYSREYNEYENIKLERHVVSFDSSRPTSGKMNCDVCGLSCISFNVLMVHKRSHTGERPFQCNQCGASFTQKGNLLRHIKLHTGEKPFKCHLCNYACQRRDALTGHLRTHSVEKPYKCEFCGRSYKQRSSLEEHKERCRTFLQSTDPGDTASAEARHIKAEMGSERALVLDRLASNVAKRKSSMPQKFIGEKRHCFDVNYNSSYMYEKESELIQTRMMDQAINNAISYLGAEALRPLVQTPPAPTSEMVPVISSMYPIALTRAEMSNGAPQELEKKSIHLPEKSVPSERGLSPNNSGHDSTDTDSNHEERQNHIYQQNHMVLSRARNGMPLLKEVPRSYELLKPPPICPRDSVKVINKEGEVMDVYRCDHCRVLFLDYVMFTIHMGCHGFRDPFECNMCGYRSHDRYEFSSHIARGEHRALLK
T1 sequence (Q96SW2 whole entry): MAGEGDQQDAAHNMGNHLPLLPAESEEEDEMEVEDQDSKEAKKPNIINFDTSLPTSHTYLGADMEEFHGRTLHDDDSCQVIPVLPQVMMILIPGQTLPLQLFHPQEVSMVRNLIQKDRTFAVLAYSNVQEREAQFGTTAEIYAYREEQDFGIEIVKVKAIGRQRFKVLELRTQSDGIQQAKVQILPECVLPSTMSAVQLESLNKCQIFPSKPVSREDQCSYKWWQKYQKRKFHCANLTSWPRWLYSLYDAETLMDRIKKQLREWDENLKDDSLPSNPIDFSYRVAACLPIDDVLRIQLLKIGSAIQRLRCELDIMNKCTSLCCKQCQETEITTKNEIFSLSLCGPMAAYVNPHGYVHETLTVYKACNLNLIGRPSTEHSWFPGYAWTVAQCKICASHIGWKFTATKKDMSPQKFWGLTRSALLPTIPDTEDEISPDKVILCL
T1 sequence (Q16531 whole entry partner): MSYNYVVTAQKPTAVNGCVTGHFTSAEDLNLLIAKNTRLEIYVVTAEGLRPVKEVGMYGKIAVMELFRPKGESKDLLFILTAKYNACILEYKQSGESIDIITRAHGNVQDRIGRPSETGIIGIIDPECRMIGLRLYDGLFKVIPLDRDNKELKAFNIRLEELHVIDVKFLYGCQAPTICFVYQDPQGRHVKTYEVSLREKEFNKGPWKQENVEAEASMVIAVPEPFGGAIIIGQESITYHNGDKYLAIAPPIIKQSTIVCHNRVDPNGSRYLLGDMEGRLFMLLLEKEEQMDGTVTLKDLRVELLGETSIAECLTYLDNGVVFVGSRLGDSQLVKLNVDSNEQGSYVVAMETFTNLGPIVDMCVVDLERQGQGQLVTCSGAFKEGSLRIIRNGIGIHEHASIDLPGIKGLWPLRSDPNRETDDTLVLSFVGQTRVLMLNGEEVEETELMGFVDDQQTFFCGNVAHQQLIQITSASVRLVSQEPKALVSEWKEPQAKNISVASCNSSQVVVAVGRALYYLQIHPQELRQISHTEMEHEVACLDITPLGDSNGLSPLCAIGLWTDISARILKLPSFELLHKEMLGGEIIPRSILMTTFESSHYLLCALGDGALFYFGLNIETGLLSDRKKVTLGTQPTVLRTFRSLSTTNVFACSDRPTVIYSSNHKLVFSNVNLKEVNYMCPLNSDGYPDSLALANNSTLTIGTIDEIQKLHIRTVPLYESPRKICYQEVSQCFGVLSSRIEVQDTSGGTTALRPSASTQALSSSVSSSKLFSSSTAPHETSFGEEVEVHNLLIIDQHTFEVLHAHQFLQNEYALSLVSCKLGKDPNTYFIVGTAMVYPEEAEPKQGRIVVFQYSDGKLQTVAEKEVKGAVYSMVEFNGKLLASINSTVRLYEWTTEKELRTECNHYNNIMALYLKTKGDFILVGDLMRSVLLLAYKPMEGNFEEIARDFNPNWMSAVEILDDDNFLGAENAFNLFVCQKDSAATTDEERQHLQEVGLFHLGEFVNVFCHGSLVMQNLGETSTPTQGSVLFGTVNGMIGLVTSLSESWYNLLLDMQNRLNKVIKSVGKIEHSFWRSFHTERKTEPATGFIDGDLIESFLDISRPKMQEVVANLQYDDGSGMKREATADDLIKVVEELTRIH
Method: (§1) The effect of the compounds of the present disclosure on the expression of target proteins in cells was detected using conventional Western blot analysis.
(§2) Human peripheral blood mononuclear cells (hPBMCs) at a density of 1×10^6 cells/mL were thawed according to the PBMC Recovery Protocol (Milecell Biotechnologies Inc, Shanghai). The cells were then treated with the compounds of the present disclosure (including the compounds listed in Tables 1 and 2, and the Examples A1-A20 and 1-116 compounds) at concentrations of 50 nM and 500 nM.
(§3) Controls included a negative control (DMSO) and a positive control (the commercial immunomodulatory drug lenalidomide), both processed following the identical experimental protocol as the compounds of the present disclosure. After 24 hours of compounds treatment, cells were harvested and lysed in RIPA protein lysate containing phosphatase inhibitors on ice for 30-60 min, followed by centrifugation. The supernatant was aspirated as the extracted total cell protein. The protein concentration of the supernatant was determined using the conventional BCA (Bicinchoninic Acid) assay. The supernatant was then mixed with 4× SDS sample loading buffer, denatured at 95° C. for 5 minutes, and then subjected to SDS-PAGE electrophoresis on a polyacrylamide gel. Proteins were then transferred to a nitrocellulose (NC) membrane, blocked at room temperature for 1-2 h, and processed for antibody incubation and detection according to the manufacturer's instructions (Cell Signaling Technology).
(§4) Half-Maximal Degradation Concentration value (the drug concentration required for degrading proteins by 50%, abbreviated as DC50) reads method: comparing the grayscale values of Western blot bands from drug-treated samples with those from blank DMSO-treated controls, and identifying the drug concentration range at which the grayscale value is half that of the DMSO-treated control bands.
(§5) DC50 values can be calculated using ImageJ software to measure grayscale values of Western blot bands from drug-treated samples. The concentration-response curve is fitted to estimate the drug concentration corresponding to half the grayscale value.
(§6) Target protein remaining (%) refers to the percentage of target protein remaining in hPBMC cells after treatment with protein degrader compounds.
(§7) Calculation method for protein remaining (%): Use ImageJ software to measure grayscale values of Western blot bands from drug (protein degrader)-treated samples. The grayscale value of drug-treated bands is divided by that of internal control protein bands, and the resulting quotient is normalized to obtain the relative percentage of remaining target protein after protein degrader treatment.
(§8) Target protein degradation rate (%)=100%−target protein remaining (%).

IKZF1 = target: T2, IKZF1 (Homo sapiens, UniProt Q13422+Q96SW2); test: Western-blot assay, substrate protein in hPBMCs; assay type: cell-based; conditions: hPBMC cells, 24 hours, tested at 50 nM and 500 nM, table does not say which
T2 construct: endogenous in cells; host or cells: human PBMCs (Milecell Biotechnologies)
T2 sequence (Q13422 whole entry): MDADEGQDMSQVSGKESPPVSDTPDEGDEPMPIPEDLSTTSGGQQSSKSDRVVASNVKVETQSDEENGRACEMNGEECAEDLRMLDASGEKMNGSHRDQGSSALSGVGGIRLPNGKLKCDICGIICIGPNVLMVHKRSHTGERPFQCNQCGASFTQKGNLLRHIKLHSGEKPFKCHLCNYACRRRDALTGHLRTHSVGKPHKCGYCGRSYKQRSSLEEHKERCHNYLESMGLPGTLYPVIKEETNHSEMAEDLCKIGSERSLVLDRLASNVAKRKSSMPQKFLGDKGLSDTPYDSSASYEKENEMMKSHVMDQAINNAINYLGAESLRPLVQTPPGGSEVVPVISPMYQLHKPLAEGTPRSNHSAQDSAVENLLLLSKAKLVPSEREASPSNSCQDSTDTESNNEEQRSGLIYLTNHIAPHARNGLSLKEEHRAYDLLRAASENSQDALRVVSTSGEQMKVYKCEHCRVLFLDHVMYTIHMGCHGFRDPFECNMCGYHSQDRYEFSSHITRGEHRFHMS
T2 sequence (Q96SW2 whole entry): as the sequence (Q96SW2 whole entry) above
T2 sequence (Q16531 whole entry partner): as the sequence (Q16531 whole entry partner) above
Method: as §1, §2, §3, §4, §5, §6, §7, §8

CK1α = target: T3, CK1α (Homo sapiens, UniProt P48729+Q96SW2); test: Western-blot assay, substrate protein in hPBMCs; assay type: cell-based; conditions: hPBMC cells, 24 hours, tested at 50 nM and 500 nM, table does not say which
T3 construct: endogenous in cells; host or cells: human PBMCs (Milecell Biotechnologies)
T3 sequence (P48729 whole entry): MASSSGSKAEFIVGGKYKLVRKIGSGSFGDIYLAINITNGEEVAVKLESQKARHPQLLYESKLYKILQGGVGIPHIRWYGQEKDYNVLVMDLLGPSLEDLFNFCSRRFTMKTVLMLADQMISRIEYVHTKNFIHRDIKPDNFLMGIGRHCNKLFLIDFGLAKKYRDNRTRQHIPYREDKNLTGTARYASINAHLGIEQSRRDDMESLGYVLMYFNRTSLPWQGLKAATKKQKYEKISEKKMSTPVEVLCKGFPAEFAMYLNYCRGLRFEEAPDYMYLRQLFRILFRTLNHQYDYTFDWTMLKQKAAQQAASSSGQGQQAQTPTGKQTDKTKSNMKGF
T3 sequence (Q96SW2 whole entry): as the sequence (Q96SW2 whole entry) above
T3 sequence (Q16531 whole entry partner): as the sequence (Q16531 whole entry partner) above
Summary of the method: (§9)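 Steps: treat hPBMCs 24 h; lyse on ice in RIPA with phosphatase inhibitors; quantify protein by BCA; denature at 95 °C and blot. Remaining protein (%) is the target/internal-control band ratio, normalised; degradation rate is its complement.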

Wee1 = target: T4, Wee1 (Homo sapiens, UniProt P30291+Q96SW2); test: Western-blot assay, substrate protein in hPBMCs; assay type: cell-based; conditions: hPBMC cells, 24 hours, tested at 50 nM and 500 nM, table does not say which
T4 construct: endogenous in cells; host or cells: human PBMCs (Milecell Biotechnologies)
T4 sequence (P30291 whole entry): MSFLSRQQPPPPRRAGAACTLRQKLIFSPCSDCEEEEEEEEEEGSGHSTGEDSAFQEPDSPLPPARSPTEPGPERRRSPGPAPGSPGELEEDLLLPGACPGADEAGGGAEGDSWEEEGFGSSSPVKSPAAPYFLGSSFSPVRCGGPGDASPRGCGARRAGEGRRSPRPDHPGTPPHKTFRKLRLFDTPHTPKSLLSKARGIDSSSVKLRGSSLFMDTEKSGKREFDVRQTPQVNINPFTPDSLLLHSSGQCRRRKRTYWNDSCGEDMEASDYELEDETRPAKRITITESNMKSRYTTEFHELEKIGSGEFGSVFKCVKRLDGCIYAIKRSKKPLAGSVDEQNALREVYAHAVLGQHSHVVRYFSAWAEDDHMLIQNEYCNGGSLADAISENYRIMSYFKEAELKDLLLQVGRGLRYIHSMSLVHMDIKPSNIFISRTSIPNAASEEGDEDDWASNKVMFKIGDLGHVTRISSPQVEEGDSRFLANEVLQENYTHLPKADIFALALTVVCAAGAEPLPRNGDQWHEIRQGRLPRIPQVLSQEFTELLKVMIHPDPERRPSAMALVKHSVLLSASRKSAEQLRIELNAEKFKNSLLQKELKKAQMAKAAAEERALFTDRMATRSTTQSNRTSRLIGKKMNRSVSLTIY
T4 sequence (Q96SW2 whole entry): as the sequence (Q96SW2 whole entry) above
T4 sequence (Q16531 whole entry partner): as the sequence (Q16531 whole entry partner) above
Summary of the method: as §9

GSPT1 = target: T5, GSPT1 (Homo sapiens, UniProt P15170+Q96SW2); test: Western-blot assay, substrate protein in hPBMCs; assay type: cell-based; conditions: hPBMC cells, 24 hours, tested at 50 nM and 500 nM, table does not say which
T5 construct: endogenous in cells; host or cells: human PBMCs (Milecell Biotechnologies)
Summary of the method: as §9

[1] = target: T6, human Cereblon WT GST-tagged protein (Homo sapiens, UniProt Q96SW2); test: CRBN-binding affinity, HTRF (CEREBLON BINDING kit); conditions: displacement of Thalidomide-Re reagent, 3 hours at room temperature
T6 construct: purchased CISBIO 64BDCRBNPEH
T6 sequence (Q96SW2 whole entry): as the sequence (Q96SW2 whole entry) above
Summary of the method: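 HTRF competition format: compound, GST-tagged wild-type human Cereblon, Thalidomide-Re tracer and GST Eu antibody were combined in PROTAC binding buffer. Binding was derived from emission at 620 nm relative to blank and solvent control wells.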

IKZF2 = target: T7, IKZF2 (Homo sapiens, UniProt Q96SW2+Q9UKS7); test: Western-blot assay, substrate protein in hPBMCs; assay type: cell-based; conditions: hPBMC cells, 24 hours, tested at 50 nM and 500 nM, table does not say which
T7 construct: endogenous in cells; host or cells: human PBMCs (Milecell Biotechnologies)
T7 sequence (Q9UKS7 whole entry): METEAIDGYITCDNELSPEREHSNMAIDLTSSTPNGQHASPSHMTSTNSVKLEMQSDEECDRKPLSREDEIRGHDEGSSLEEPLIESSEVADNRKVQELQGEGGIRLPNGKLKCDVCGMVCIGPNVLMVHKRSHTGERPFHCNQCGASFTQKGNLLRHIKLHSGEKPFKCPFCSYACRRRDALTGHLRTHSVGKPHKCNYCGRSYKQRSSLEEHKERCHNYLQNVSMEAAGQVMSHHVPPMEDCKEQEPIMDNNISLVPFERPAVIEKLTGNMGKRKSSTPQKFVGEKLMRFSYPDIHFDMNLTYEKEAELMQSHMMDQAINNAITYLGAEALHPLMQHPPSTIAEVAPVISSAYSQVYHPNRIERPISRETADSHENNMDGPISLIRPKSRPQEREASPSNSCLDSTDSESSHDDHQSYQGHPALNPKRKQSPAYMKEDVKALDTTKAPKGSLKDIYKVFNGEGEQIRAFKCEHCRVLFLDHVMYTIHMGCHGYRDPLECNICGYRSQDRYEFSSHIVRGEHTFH
T7 sequence (Q96SW2 whole entry): as the sequence (Q96SW2 whole entry) above
T7 sequence (Q16531 whole entry partner): as the sequence (Q16531 whole entry partner) above
Summary of the method: as §9

IC50 [1] [nM]	Compound	substrate protein remaining % (IKZF3)	substrate protein remaining % (IKZF1)	substrate protein remaining % (CK1α)	substrate protein remaining % (Wee1)	substrate protein remaining % (GSPT1)	substrate protein remaining % (IKZF2)
< 500	O=C1CCC(N2Cc3cc(SC4CC5CN(C(c6ccccc6)c6ccccc6)CC5C4)ccc3C2=O)C(=O)N1 (stereo not shown) [GT-06922, 3-(5-((2-benzhydryloctahydro-cyclopenta[c]pyrrol-5-yl)thio)-1-oxoisoindolin-2-yl)piperidine-2,6-dione]	A (0%≤ substrate protein remaining % ≤80%)	A (0%≤ substrate protein remaining % ≤80%)	A (0%≤ substrate protein remaining % ≤80%)	A (0%≤ substrate protein remaining % ≤80%)	A (0%≤ substrate protein remaining % ≤80%)	–
500 to 1000	CC1(C)CCC(CN2CC(Oc3cccc4c3CN(C3CCC(=O)NC3=O)C4=O)C2)=C(c2ccc(Cl)cc2)C1 (stereo not shown) [GT-06952, 3-(4-((1-((4′-chloro-5,5-dimethyl-3,4,5,6-tetrahydro-[1,1′-biphenyl]-2-yl)methyl)azetidin-3-yl)oxy)-1-oxoisoindolin-2-yl)piperidine-2,6-dione]	A (0%≤ substrate protein remaining % ≤80%)	A (0%≤ substrate protein remaining % ≤80%)	A (0%≤ substrate protein remaining % ≤80%)	–	A (0%≤ substrate protein remaining % ≤80%)	–
500 to 1000	CC1(C)CCC(CN2CC(Oc3ccc4c(c3)CN(C3CCC(=O)NC3=O)C4=O)C2)=C(c2ccc(Cl)cc2)C1 (stereo not shown) [GT-03369, 3-(5-((1-((4′-chloro-5,5-dimethyl-3,4,5,6-tetrahydro-[1,1′-biphenyl]-2-yl)methyl)azetidin-3-yl)oxy)-1-oxoisoindolin-2-yl)piperidine-2,6-dione]	A (0%≤ substrate protein remaining % ≤80%)	A (0%≤ substrate protein remaining % ≤80%)	–	A (0%≤ substrate protein remaining % ≤80%)	A (0%≤ substrate protein remaining % ≤80%)	–
500 to 1000	O=C1CCC(N2Cc3cc(OC4CN(Cc5cnc(-c6ccccc6)cn5)C4)ccc3C2=O)C(=O)N1 (stereo not shown) [GT-06353, 3-(1-oxo-5-((1-((5-phenylpyrazin-2-yl)methyl)azetidin-3-yl)oxy)isoindolin-2-yl)piperidine-2,6-dione]	A (0%≤ substrate protein remaining % ≤80%)	A (0%≤ substrate protein remaining % ≤80%)	A (0%≤ substrate protein remaining % ≤80%)	A (0%≤ substrate protein remaining % ≤80%)	A (0%≤ substrate protein remaining % ≤80%)	–
< 500	O=C1CCC(N2Cc3cc(OC4CCN(C(c5ccccc5)c5ccccc5)CC4)ccc3C2=O)C(=O)N1 (stereo not shown) [GT-06195, 3-(5-((1-benzhydrylpiperidin-4-yl)oxy)-1-oxoisoindolin-2-yl)piperidine-2,6-dione]	A (0%≤ substrate protein remaining % ≤80%)	A (0%≤ substrate protein remaining % ≤80%)	A (0%≤ substrate protein remaining % ≤80%)	A (0%≤ substrate protein remaining % ≤80%)	A (0%≤ substrate protein remaining % ≤80%)	–
< 500	O=C1CCC(N2Cc3cc(OC4CN(CC5=C(c6ccc(Cl)cc6)CCOC5)C4)ccc3C2=O)C(=O)N1 (stereo not shown) [GT-06354, 3-(5-((1-((4-(4-chlorophenyl)-5,6-dihydro-2H-pyran-3-yl)methyl)azetidin-3-yl)oxy)-1-oxoisoindolin-2-yl)piperidine-2,6-dione]	A (0%≤ substrate protein remaining % ≤80%)	A (0%≤ substrate protein remaining % ≤80%)	A (0%≤ substrate protein remaining % ≤80%)	A (0%≤ substrate protein remaining % ≤80%)	A (0%≤ substrate protein remaining % ≤80%)	–
500 to 1000	CC1(C)CCC(CN2CC(Sc3cccc4c3CN(C3CCC(=O)NC3=O)C4=O)C2)=C(c2ccc(Cl)cc2)C1 (stereo not shown) [GT-06515, 3-(4-((1-((4′-chloro-5,5-dimethyl-3,4,5,6-tetrahydro-[1,1′-biphenyl]-2-yl)methyl)azetidin-3-yl)thio)-1-oxoisoindolin-2-yl)piperidine-2,6-dione]	A (0%≤ substrate protein remaining % ≤80%)	A (0%≤ substrate protein remaining % ≤80%)	A (0%≤ substrate protein remaining % ≤80%)	A (0%≤ substrate protein remaining % ≤80%)	A (0%≤ substrate protein remaining % ≤80%)	–
500 to 1000	O=C1CCC(N2Cc3cc(OC4CCN(Cc5ccccc5-c5ccc(Cl)cc5)C4)ccc3C2=O)C(=O)N1 (stereo not shown) [GT-06817, 3-(5-((1-((4′-chloro-[1,1′-biphenyl]-2-yl)methyl)pyrrolidin-3-yl)oxy)-1-oxoisoindolin-2-yl)piperidine-2,6-dione]	A (0%≤ substrate protein remaining % ≤80%)	–	A (0%≤ substrate protein remaining % ≤80%)	A (0%≤ substrate protein remaining % ≤80%)	A (0%≤ substrate protein remaining % ≤80%)	A (0%≤ substrate protein remaining % ≤80%)
1000 to 1900	CC1(C)CCC(CN2CC(Oc3ccc4c(c3)C(=O)N(C3CCC(=O)NC3=O)C4)C2)=C(c2ccc(Cl)cc2)C1 (stereo not shown) [GT-06872, 3-(6-((1-((4′-chloro-5,5-dimethyl-3,4,5,6-tetrahydro-[1,1′-biphenyl]-2-yl)methyl)azetidin-3-yl)oxy)-1-oxoisoindolin-2-yl)piperidine-2,6-dione]	A (0%≤ substrate protein remaining % ≤80%)	–	A (0%≤ substrate protein remaining % ≤80%)	A (0%≤ substrate protein remaining % ≤80%)	A (0%≤ substrate protein remaining % ≤80%)	A (0%≤ substrate protein remaining % ≤80%)
< 500	O=C1CCC(N2Cc3cc(OC4CCN(C(c5ccccc5)c5ccccc5)C4)ccc3C2=O)C(=O)N1 (stereo not shown) [GT-06819, 3-(5-((1-benzhydrylpyrrolidin-3-yl)oxy)-1-oxoisoindolin-2-yl)piperidine-2,6-dione]	A (0%≤ substrate protein remaining % ≤80%)	–	A (0%≤ substrate protein remaining % ≤80%)	A (0%≤ substrate protein remaining % ≤80%)	A (0%≤ substrate protein remaining % ≤80%)	A (0%≤ substrate protein remaining % ≤80%)
< 500	O=C1CCC(N2Cc3cc(OC4CN(C(c5ccccn5)c5ccccn5)C4)ccc3C2=O)C(=O)N1 (stereo not shown) [GT-06814, 3-(5-((1-(di(pyridin-2-yl)methyl)azetidin-3-yl)oxy)-1-oxoisoindolin-2-yl)piperidine-2,6-dione]	A (0%≤ substrate protein remaining % ≤80%)	–	A (0%≤ substrate protein remaining % ≤80%)	A (0%≤ substrate protein remaining % ≤80%)	A (0%≤ substrate protein remaining % ≤80%)	A (0%≤ substrate protein remaining % ≤80%)
